{"source": "patent US20100197602A1", "about": "“USE OF FOLLICULAR GONADOTROPIN RELEASING PEPTIDE AS A THERAPEUTIC AGENT IN THE TREATMENT OF STREPTOCOCCUS PNEUMONIAE INFECTION” (priority 2007, published 2010)", "key": {"Streptococcus pneumoniae": {"tested_on": "Streptococcus pneumoniae", "assay_type": "cell-based", "settings": "5 micrograms per ml"}, "Pseudomonas aeruginosa": {"tested_on": "Pseudomonas aeruginosa", "assay_type": "cell-based", "settings": "5 micrograms per ml"}, "in vitro [1]": {"assay": "in vitro", "settings": "human, CEM-SS cells"}, "MRSA": {"tested_on": "MRSA", "settings": "5 micrograms per ml"}, "in vitro [2]": {"assay": "in vitro", "settings": "human, MRC-5 cells (human embryonal lung fibroblasts)"}, "[3]": {"assay": "Cell viability in HepG2-2.2.15 cells (dye uptake) of the HBV assay", "settings": "human"}, "HCMV strain AD169": {"tested_on": "HCMV strain AD169", "assay": "HCMV plaque reduction assay", "assay_type": "cell-based", "settings": "HCMV AD169 in MRC-5 cells; peptide 10 micrograms per ml; 7-10 days", "from_the_text": "Ganciclovir was used as positive control."}, "HIV-1IIIB": {"tested_on": "HIV-1IIIB", "assay": "HIV-1 antiviral assay (CPE reduction, MTS)", "assay_type": "cell-based", "settings": "peptide 10 micrograms per ml, 6 days post-infection"}}, "note": "Residues, ends and D or L forms follow the SMILES beside them.", "data": [{"molecule": "C[C@@H](O)[C@H](N)C(=O)N[C@@H](CC(=O)O)C(=O)N[C@H](C(=O)N[C@@H](CO)C(=O)N[C@@H](Cc1c[nH]cn1)C(=O)N[C@@H](Cc1c[nH]cn1)C(=O)N[C@@H](CC(=O)O)C(=O)N[C@@H](CCC(N)=O)C(=O)N[C@@H](CC(=O)O)C(=O)N[C@@H](Cc1c[nH]cn1)C(=O)N1CCC[C@H]1C(=O)N[C@H](C(=O)N[C@@H](Cc1ccccc1)C(=O)N[C@@H](CC(N)=O)C(=O)O)[C@@H](C)O)[C@@H](C)O", "note": "[FGRP, Thr-Asp-Thr-Ser-His-His-Asp-Gln-Asp-His-Pro-Thr-Phe-Asn-OH] (H-TDTSHHDQDHPTFN-OH)", "values": [{"measurement": "% inhibition", "setting": "Streptococcus pneumoniae", "value": 100.0, "unit": "%"}, {"measurement": "% inhibition", "setting": "Pseudomonas aeruginosa", "value": 0.0, "unit": "%"}, {"measurement": "viability at 10 micrograms per ml", "setting": "in vitro [1]", "value": 100, "unit": "%"}, {"measurement": "% inhibition", "setting": "MRSA", "value": 0.0, "unit": "%"}, {"measurement": "viability at 144 h", "setting": "in vitro [2]", "value": 100, "unit": "%"}, {"measurement": "viability at 144 h, 10 micrograms per ml", "setting": "[3]", "value": 100, "unit": "%"}]}, {"molecule": "Nc1nc(O)c2ncn(COC(CO)CO)c2n1", "note": "[Ganciclovir]", "values": [{"measurement": "% plaque reduction", "setting": "HCMV strain AD169", "value": 100, "unit": "%"}]}, {"molecule": "Cc1cn([C@H]2C[C@H](N=[N+]=[N-])[C@@H](CO)O2)c(=O)[nH]c1=O", "note": "[AZT]", "values": [{"measurement": "% CPE reduction in HIV-1 infected CEM-SS cells", "setting": "HIV-1IIIB", "value": 99, "unit": "%"}]}]}
